{"source": "PubChem BioAssay AID179", "about": "(DTP/NCI, 2004)", "system": "CEM cells HIV-1 protection, formazan growth assay", "assay": "NCI AIDS Antiviral Assay", "details": "for IC50: measured here: growth of uninfected CEM cells", "method_in_brief": "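Human CEM cells, uninfected and HIV-1-infected, exposed to five drug concentrations; growth measured by soluble formazan assay and scored as percent protection from infection, with protecting compounds retested.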", "note": "Activity calls are given as the source filed them.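 The calls were made as follows: active = compounds giving half or more protection of infected cells from virus-caused growth loss, again on retest; inactive = the rest.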"}
{"smiles": "CNc1cc[nH]c(=O)c1NC(C)=O", "values": [{"measurement": "EC50", "result": "> 1380", "unit": "µM"}, {"measurement": "IC50", "result": "> 1380", "unit": "µM"}]}
{"smiles": "NCCC(=O)NCS(=O)(=O)O", "values": [{"measurement": "EC50", "result": "> 200", "unit": "µM"}, {"measurement": "IC50", "result": "> 200", "unit": "µM"}]}
{"smiles": "NC(N)=N/N=C(\\c1ccccc1)C(O)c1ccccc1", "note": "(stereo not given)", "values": [{"measurement": "EC50", "result": "> 200", "unit": "µM"}, {"measurement": "IC50", "result": 107, "unit": "µM"}]}
{"smiles": "CC1(C)CC(C#Cc2ccccc2)CC(C)(C)N1O", "values": [{"measurement": "EC50", "result": "> 200", "unit": "µM"}, {"measurement": "IC50", "result": 34.7, "unit": "µM"}]}
{"smiles": "CCCCCCCCCCCC[N+]12CC[N+](CCN)(CC1)CC2", "values": [{"measurement": "EC50", "result": "> 251", "unit": "µM"}, {"measurement": "IC50", "result": 56.2, "unit": "µM"}]}
{"smiles": "CCCCNc1cc2oc(=O)cc(C)c2cc1N", "values": [{"measurement": "EC50", "result": "> 155", "unit": "µM"}, {"measurement": "IC50", "result": 44.7, "unit": "µM"}]}
{"smiles": "CC/C(=N/O)c1ccc(Br)s1", "values": [{"measurement": "outcome", "result": "inactive"}]}
{"smiles": "O=CC(=O)c1ccccc1", "values": [{"measurement": "outcome", "result": "inactive"}]}
{"smiles": "Cc1c2ccccc2nc(CSc2ccccc2)[n+]1[O-]", "values": [{"measurement": "EC50", "result": 9.55, "unit": "µM"}, {"measurement": "IC50", "result": 178, "unit": "µM"}]}
{"smiles": "Fc1ccc(CSc2cnnc(SCc3ccc(F)cc3)c2SCc2ccc(F)cc2)cc1", "values": [{"measurement": "EC50", "result": "> 200", "unit": "µM"}, {"measurement": "IC50", "result": 39.8, "unit": "µM"}]}
{"smiles": "COCO[C@@H]1C[C@H]2C(=O)N(COC)c3ccccc3C(=O)N2C1", "values": [{"measurement": "EC50", "result": "> 200", "unit": "µM"}, {"measurement": "IC50", "result": "> 200", "unit": "µM"}]}
{"smiles": "O=C1C=C(N2CCCC2)c2ncccc2C1=O", "values": [{"measurement": "outcome", "result": "inactive"}]}
{"smiles": "CCCCCCCCC(=O)NCCN(CCN)C(=O)CCCCCCCC", "values": [{"measurement": "EC50", "result": "> 100", "unit": "µM"}, {"measurement": "IC50", "result": 5.5, "unit": "µM"}]}
{"smiles": "N.N.N.O=N[O-].O=N[O-].O=N[O-].[Co+3]", "values": [{"measurement": "outcome", "result": "inactive"}]}
{"smiles": "CCOC(=O)C(=Cn1c(=S)[nH]c2cc(C)ccc21)C(=O)OCC", "values": [{"measurement": "EC50", "result": "> 200", "unit": "µM"}, {"measurement": "IC50", "result": "> 200", "unit": "µM"}]}
{"smiles": "O=C(/C=C1/NC(=O)CS1)Nc1ccccc1", "values": [{"measurement": "EC50", "result": "> 380", "unit": "µM"}, {"measurement": "IC50", "result": 182, "unit": "µM"}]}
{"smiles": "CCCCCC(=O)Nc1n[nH]nc1C(N)=O", "values": [{"measurement": "EC50", "result": "> 200", "unit": "µM"}, {"measurement": "IC50", "result": "> 200", "unit": "µM"}]}
{"smiles": "COc1cc(C2c3cc4c(cc3C(O)[C@H]3COC(=O)[C@@H]23)OCO4)cc(OC)c1O", "note": "(stereo not given in full)", "values": [{"measurement": "EC50", "result": "> 200", "unit": "µM"}, {"measurement": "IC50", "result": 1.12, "unit": "µM"}]}
{"smiles": "CC(=O)C(C)C(=O)N1C(=O)N(C)C2(C)N(C)C(=O)NC12C", "note": "(stereo not given)", "values": [{"measurement": "EC50", "result": "> 200", "unit": "µM"}, {"measurement": "IC50", "result": "> 200", "unit": "µM"}]}
{"smiles": "O=c1cc2[nH]cnc2c(O)[nH]1", "values": [{"measurement": "EC50", "result": "> 89.1", "unit": "µM"}, {"measurement": "IC50", "result": "> 89.1", "unit": "µM"}]}
{"smiles": "CCOC(=O)[C@@]12C(C)=CC(=O)O[C@]1(C)C[C@H]2C#N", "values": [{"measurement": "EC50", "result": "> 1000", "unit": "µM"}, {"measurement": "IC50", "result": "> 1000", "unit": "µM"}]}
{"smiles": "CC1=C2NCN(C)N=C2C(C#N)(C#N)C1(C#N)C#N", "values": [{"measurement": "EC50", "result": "> 200", "unit": "µM"}, {"measurement": "IC50", "result": 10.5, "unit": "µM"}]}
{"smiles": "CC1=C[C@H]2C3=C(OC(C)(C)[C@H]2CC1)C(=O)c1c(cc(O)c(C)c1O)C3=O", "values": [{"measurement": "EC50", "result": "> 182", "unit": "µM"}, {"measurement": "IC50", "result": 34.7, "unit": "µM"}]}
{"smiles": "CC1=Nc2ccccc2SC2(C1)C(C1COC(C)(C)O1)OC1OC(C)(C)OC12", "note": "(stereo not given)", "values": [{"measurement": "EC50", "result": "> 74.1", "unit": "µM"}, {"measurement": "IC50", "result": 63.1, "unit": "µM"}]}
{"smiles": "COC(=O)[C@H]1CO[C@@H](C(C)(C)C)N1C(=O)N1C=CC(=O)C[C@@H]1C", "values": [{"measurement": "EC50", "result": "> 200", "unit": "µM"}, {"measurement": "IC50", "result": "> 200", "unit": "µM"}]}
{"smiles": "CC(=O)O[C@]1(C(C)=O)CC[C@H]2[C@@H]3C=C(Cl)C4=CC(=O)[C@@H]5C[C@@H]5[C@]4(C)[C@H]3CC[C@@]21C", "values": [{"measurement": "EC50", "result": "> 200", "unit": "µM"}, {"measurement": "IC50", "result": "> 200", "unit": "µM"}]}
{"smiles": "O=C(Nc1ccccc1)NC(CSSCC(NC(=O)Nc1ccccc1)C(=O)O)C(=O)O", "note": "(stereo not given)", "values": [{"measurement": "EC50", "result": "> 200", "unit": "µM"}, {"measurement": "IC50", "result": 7.24, "unit": "µM"}]}
{"smiles": "O=Nc1c(-c2ccc(Cl)cc2)nc2ncccn12", "values": [{"measurement": "EC50", "result": "> 200", "unit": "µM"}, {"measurement": "IC50", "result": 38, "unit": "µM"}]}
{"smiles": "N#Cc1c(N)nc2c(N=Nc3ccccc3)c(N)nn2c1Nc1ccccc1", "values": [{"measurement": "EC50", "result": "> 200", "unit": "µM"}, {"measurement": "IC50", "result": 9.55, "unit": "µM"}]}
{"smiles": "COc1ccc2c(c1)N=C(N)n1c(nc3ccccc31)S2", "values": [{"measurement": "EC50", "result": "> 200", "unit": "µM"}, {"measurement": "IC50", "result": 6.61, "unit": "µM"}]}
{"smiles": "N/N=C1\\C(=O)N(C2CCCCCC2)C(=O)C1C(=O)NC1CCCCCC1", "note": "(stereo not given)", "values": [{"measurement": "EC50", "result": "> 14.5", "unit": "µM"}, {"measurement": "IC50", "result": "> 14.5", "unit": "µM"}]}
{"smiles": "CSc1nc2c(nc(N)n2C2OCC(O)C(O)C2O)c(=O)[nH]1", "note": "(stereo not given)", "values": [{"measurement": "outcome", "result": "inactive"}]}
{"smiles": "O=C(OC1CCC2OOC1O2)c1ccc([N+](=O)[O-])cc1", "note": "(stereo not given)", "values": [{"measurement": "outcome", "result": "inactive"}]}
{"smiles": "O=C(O)C1(C(=O)O)CC23CCC2(COC3)C1", "note": "(stereo not given)", "values": [{"measurement": "outcome", "result": "inactive"}]}
{"smiles": "C/C(=N/NC(=S)Nc1ccc(C)cc1)c1ccccn1", "values": [{"measurement": "EC50", "result": "> 0.2", "unit": "µM"}, {"measurement": "IC50", "result": 0.0794, "unit": "µM"}]}
{"smiles": "CC(C)(C)OC(=O)NCC(=O)NC1CC=CCC1NC(=O)CNC(=O)OC(C)(C)C", "note": "(stereo not given)", "values": [{"measurement": "EC50", "result": "> 200", "unit": "µM"}, {"measurement": "IC50", "result": "> 200", "unit": "µM"}]}
{"smiles": "O=C(CCc1ccc(O)c(O)c1)NCCc1ccc(O)c(O)c1", "values": [{"measurement": "EC50", "result": "> 200", "unit": "µM"}, {"measurement": "IC50", "result": 9.55, "unit": "µM"}]}
{"smiles": "COc1ccc(C(=O)NNC(=O)c2nsc3ccccc23)cc1", "values": [{"measurement": "EC50", "result": "> 41.7", "unit": "µM"}, {"measurement": "IC50", "result": "> 41.7", "unit": "µM"}]}
{"smiles": "COc1ccc(/C=C2/C(=O)C(c3ccccc3)N(c3ccccc3)C2=O)cc1OC", "note": "(stereo not given)", "values": [{"measurement": "EC50", "result": "> 200", "unit": "µM"}, {"measurement": "IC50", "result": 107, "unit": "µM"}]}
{"smiles": "CCN=C1SC2C(=O)N(C)C(S1)C(=O)N2C", "values": [{"measurement": "EC50", "result": "> 692", "unit": "µM"}, {"measurement": "IC50", "result": 36.3, "unit": "µM"}]}
{"smiles": "c1ccc(N2N=NC3C4CC(C32)C2C4N=NN2c2ccccc2)cc1", "note": "(stereo not given)", "values": [{"measurement": "EC50", "result": "> 200", "unit": "µM"}, {"measurement": "IC50", "result": "> 200", "unit": "µM"}]}
{"smiles": "CSc1nc(C)c(C(=O)CCN2CCN(c3ccccn3)CC2)s1", "values": [{"measurement": "EC50", "result": "> 87.1", "unit": "µM"}, {"measurement": "IC50", "result": 4.37, "unit": "µM"}]}
{"smiles": "C(=C\\P(c1ccccc1)c1ccccc1)/P(/C=C/P(c1ccccc1)c1ccccc1)c1ccccc1", "values": [{"measurement": "EC50", "result": "> 4.9", "unit": "µM"}, {"measurement": "IC50", "result": "> 4.9", "unit": "µM"}]}
{"smiles": "Nc1ncnc2c1ncn2C1CC(CO)C(CO)C1", "note": "(stereo not given)", "values": [{"measurement": "EC50", "result": "> 95.5", "unit": "µM"}, {"measurement": "IC50", "result": "> 95.5", "unit": "µM"}]}
{"smiles": "CCOP(=O)(OCC)C(C)(CC)NC", "note": "(stereo not given)", "values": [{"measurement": "EC50", "result": "> 200", "unit": "µM"}, {"measurement": "IC50", "result": "> 200", "unit": "µM"}]}
{"smiles": "CSc1nc(Cl)c2c(n1)Sc1nc3ccccc3n1N=C2", "values": [{"measurement": "EC50", "result": "> 100", "unit": "µM"}, {"measurement": "IC50", "result": 55, "unit": "µM"}]}
